Data reported in publication PMC9784828, “Antimicrobial Activity of Peptide-Coupled Antisense Peptide Nucleic Acids in Streptococcus pneumoniae” (Microbiology Spectrum, 2022).

Columns and labels:
[1] = tested on: Detroit 562 cells infected with S. pneumoniae TIGR4; assay: Cell-based infection model, bacterial CFU; set-up: species or system Streptococcus pneumoniae; settings: MOI 5, 3 h at 37°C, n = 3
Protocol: Detroit 562 human pharyngeal epithelial cells were infected with S. pneumoniae TIGR4 at a multiplicity of infection (MOI) of 5. Cells were treated with 20 μM (RXR)4XB-anti-gyrA PNA or scrambled control PNA, respectively. As a positive control, 1 μg levofloxacin, corresponding to 3× MIC, was added. Following incubation for 3 h at 37°C, bacterial CFU counts were determined for CPP-antisense PNA-treated samples and compared to those in nontreated samples and in samples containing scrambled control PNAs (Fig. 4A). Treatment with (RXR)4XB-anti-gyrA caused a log CFU reduction of 1. Addition of levofloxacin led to a log CFU reduction of 2.
The human pharynx carcinoma epithelial cell line Detroit 562 (ATCC CCL138) was cultivated in Dulbecco’s modified Eagle medium (DMEM)/F12 (1:1) (Thermo Fisher Scientific, Schwerte, Germany) supplemented with 10% fetal bovine serum at 37°C and 5% CO2. Confluent Detroit 562 cells were infected with S. pneumoniae TIGR4 at an MOI of 5. Cultures were treated with 20 μM CPP-PNAs or 1 μg levofloxacin, respectively, and incubated for 3 h at 37°C, 5% CO2. After incubation, the supernatant was collected. Adherent cells were detached with Accutase solution (Merck KGaA, Darmstadt, Germany), collected by centrifugation for 10 min at 4,000 × g, and combined with the supernatant. Cells were pelleted by centrifugation, washed twice with PBS, and suspended in PBS. CFU/well was determined following serial dilution and plating on Todd Hewitt Broth, supplemented with Yeast, (THY) agar plates.

[2] = tested on: G. mellonella larvae infected with S. pneumoniae TIGR4; assay: G. mellonella infection model, bacterial load; assay type: in vivo, Galleria mellonella; settings: 24 h postinfection
Protocol: To establish the antibacterial effect of PNAs in the invertebrate infection model, we assessed the bacterial loads in infected larvae (Fig. 6). Larvae were infected and subsequently treated with NaCl (mock), 10 nmol CPP-PNA, or levofloxacin (positive control), respectively. From each group, four larvae were homogenized at 24 h postinfection. CFU/larva were determined following serial dilutions of the suspension and plating on selective medium. Treatment with (RXR)4XB-anti-gyrA caused a log CFU reduction of 1 compared to that in the mock-treated larvae. The addition of 1 or 10 μg levofloxacin led to a log CFU reduction of 2 or 6, respectively.
For determination of bacterial load, larvae were infected and subsequently treated with NaCl (mock), CPP-PNAs, or levofloxacin (positive control). At 24 h after infection, larvae were homogenized. Following serial dilution, the suspension was plated on selective medium (BD Columbia CNA Agar with 5% sheep blood; Becton Dickinson GmbH, Heidelberg, Germany). Agar plates were incubated overnight at 37°C, 5% CO2. CFU/larva was determined by visual inspection. Colony identity was verified on a random basis by colony PCR using ply-specific primers.

[3] = tested on: G. mellonella larvae infected with S. pneumoniae TIGR4; assay: G. mellonella infection model, larval survival; assay type: in vivo, Galleria mellonella; settings: 7 days; for Survival of infected larvae: 30 min postinfection, mock 19%, n = 40
Protocol: Antimicrobial efficiency of CPP-antisense PNA conjugates was evaluated in vivo employing a G. mellonella infection and treatment model ([22], [28]). Larvae were infected with S. pneumoniae strain TIGR4 and subsequently treated with 10 nmol CPP-anti-gyrA PNAs. Treatment with levofloxacin served as a positive control. Larval survival was observed over 7 days.
Larvae of the greater wax moth (G. mellonella) were obtained from Bugs-International GmbH (Irsingen/Unterfeld, Germany). For infection experiments, S. pneumoniae TIGR4 was grown for 7 h in BHI, washed twice in a 0.9% NaCl solution, and suspended in 0.9% NaCl to a final concentration of approximately 1 × 10^8 CFU/mL. Larvae weighing 150 to 200 mg were infected with 1 × 10^6 to 3 × 10^6 CFU/larva. Bacteria were injected into the hemocoel of the larvae between the last two pairs of prolegs using a microapplicator (World Precision Instruments, LLC, Sarasota, FL) and a fine-dosage syringe (Omnican-F, 0.01 to 1 mL, 0.30 × 12 mm; B. Braun AG, Melsungen, Germany). As mock control, 0.9% NaCl (PNA experiment) or 0.9% NaCl/3% DMSO (levofloxacin experiment) was injected. For CPP-PNA treatment, larvae were injected 30 min postinfection with 10 nmol CPP-PNA/larva. For levofloxacin treatment, larvae were injected 30 min postinfection with 1 or 10 μg levofloxacin/larva. Larvae were incubated for 7 days, and survival was monitored daily ([22]).

S. pneumoniae TIGR4 [4] = assay: Bacterial killing assay (CFU/mL reduction after 6 h); assay type: cell-based, Streptococcus pneumoniae; settings: TIGR4
Protocol: The impact of different CPPs on the efficacy of antisense PNAs targeting gyrA and rpoB in S. pneumoniae was tested using an in vitro killing assay ([25]). S. pneumoniae strains were incubated for 6 h with CPP-antisense PNA conjugates. We determined the reduction of bacterial CFU/mL caused by different CPP-coupled antisense PNA constructs compared to an untreated control. Three different CPPs were tested: HIV-1 TAT (TAT), oligolysin (K8), and (RXR)4XB (Table 1). Concentration-dependent bactericidal activity was investigated by treatment of S. pneumoniae TIGR4 in a CPP-antisense PNA conjugate concentration range of 2.5 to 20 μM (Fig. 1).
After culturing S. pneumoniae strains in BHI, D39 and 19F were diluted to approximately 10^5 CFU/mL in phosphate-buffered saline (PBS):BHI (93%:7%), while TIGR4 was diluted to approximately 10^5 CFU/mL in PBS:BHI (96%:4%). Next, 450-μL volumes of the respective bacterial suspensions, containing approximately 0.5× 10^5 CFU, were transferred to 2-mL reaction tubes. A 50-μL volume of PNA solution was added to a final PNA concentration of 1 to 20 μM or as indicated. Fifty μL H2O served as a mock control. The reaction tubes were incubated for 6 h at 37°C and 7 rpm (Rotor SB3; Stuart, Staffordshire, United Kingdom). The concentration of CPP-PNA that reduced CFU/mL by 50% after 6 h of incubation compared to an untreated control (IC50) was calculated by nonlinear regression analysis using GraphPad Prism software (GraphPad Software, San Diego, CA).

S. pneumoniae TIGR4 [5] = assay: In vitro time-killing assay (killing kinetics); assay type: cell-based, Streptococcus pneumoniae; settings: 10 μM, samples every 2 h up to 12 h, n = 3
Protocol: The antimicrobial activity kinetics of TAT- and (RXR)4XB-conjugated anti-gyrA PNA constructs in S. pneumoniae TIGR4 were studied using an in vitro time-killing assay. Bacteria were treated with 10 μM CPP-antisense PNAs or scrambled control PNAs (Fig. 2). Samples were collected every 2 h following antisense treatment. CFU/mL was determined by plating of serial dilutions and plotted over time. […] In contrast, (RXR)4XB-conjugated anti-gyrA PNA treatment led to a continuous reduction in S. pneumoniae CFU until complete eradication after 12 h.
For monitoring of killing kinetics, samples were collected 2 to 12 h post-treatment. Viable cell counts were determined by plating appropriate dilutions on BHI agar plates. CFU were determined by visual inspection following overnight incubation at 37°C under a 5% CO2 atmosphere. At time point 0, the viable cell count corresponded to 1 × 10^5 to 3 × 10^5 CFU/mL.

Molecule: C[C@H]1COc2c(N3CCN(C)CC3)c(F)cc3c(=O)c(C(=O)O)cn1c23 [levofloxacin, reference compound]
- log CFU reduction in infected Detroit 562 cells ([1]; 1 μg levofloxacin, corresponding to 3× MIC): 2
- log CFU reduction of bacterial load compared to mock-treated larvae ([2]; 1 μg levofloxacin): 2
- log CFU reduction of bacterial load compared to mock-treated larvae ([2]; 10 μg levofloxacin): 6
- Survival of infected larvae ([3]; 1 μg levofloxacin/larva (approx. 2.5× MIC)): 40%
- Increase of survival rate ([3]; 1 μg levofloxacin/larva): 21%
- Survival of infected larvae ([3]; 10 μg levofloxacin/larva (approx. 25× MIC)): 74%

Molecule: KKKKKKKK-eg-tgcattaata [K8-anti-gyrA PNA, Oligolysin (K8) coupled to antisense PNA against gyrA]
- Reduction of bacterial CFU/mL compared to untreated control (in words) (S. pneumoniae TIGR4 [4]; 6 h, concentration range 2.5 to 20 μM, n = 5): no reduction of CFU/mL

Molecule: TAT: unconjugated cell-penetrating peptide HIV-1 TAT (48–57) (GRKKRRQRRR; UniProt P04608 48-57, looked up, fragment) [reference compound]
- Antibacterial effects of unconjugated CPP (in words) (S. pneumoniae TIGR4 [4]; Fig. S3): higher than those of the conjugated peptides

Molecule: RXRRXRRXRRXRXB-eg-aatgattact [(RXR)4XB-anti-gyrA scPNA, (RXR)4XB-coupled scrambled control PNA for anti-gyrA]
- Bacterial counts over time (in words) (S. pneumoniae TIGR4 [5]): did not cause reduced bacterial counts
- log CFU reduction in infected Detroit 562 cells ([1]; 20 μM CPP-PNA): No significant changes in bacterial CFU
- log CFU reduction of bacterial load compared to mock-treated larvae ([2]; 10 nmol CPP-PNA/larva, n = 4 larvae per group, three experiments): no significant changes in the bacterial CFU
